# Experimental data: paper PMC9301920, “Physiologically Based Toxicokinetic Modeling of Bisphenols in Zebrafish (Danio rerio) Accounting for Variations in Metabolic Rates, Brain Distribution, and Liver Accumulation” (Environmental Science & Technology, 2022)
# Counter-ions that a name gives are not always drawn. Like-named read-outs stand apart in the source and are kept apart here. Marks after values point to notes of the source that are not given here.
# Assays:
# [1] = molecular target: Estrogen receptor (ER); design: method as in Tox21; conditions: ATG ERE CIS up assay; ref Tox21; cited from earlier work
# [2] = molecular target: Estrogen receptor (ER); design: method as in Tox21; conditions: ATG Era Trans up assay; ref Tox21; cited from earlier work
# [3] = cited from earlier work
# [4] = In vitro biotransformation rate, rainbow trout liver S9 (OECD TG 319); type: in vitro ADME
# Procedure: In brief, rainbow trout liver S9 homogenate was preincubated in buffer and cofactors, followed by 120 min of incubation with bisphenol. From each duplicate, 50 μL of subsamples was taken at timepoints 0, 2, 5, 15, 30, 60, 90, and 120 min and mixed with 200 μL of ice-cold methanol. The protocol of the procedure is described further in Section 2.
# 1042. Biotransformation rate estimation methodology
# 106Trinova Biochem; Lot: 180216) was pre-incubated at 11°C in K 2HPO4/KH2PO4 buffer
# 107(pH=7.8; 1 mL final volume) containing alamethicin from Trichoderma viride (25 μg/mL), and
# 108cofactors NADPH (2 mM), UDPGA (2 mM), GSH (5 mM), and PAPS (0.1 mM). After 10 min
# 109of preincubation, biotransformation was started by adding 5 µL of bisphenol test compound
# 110dissolved in methanol (1 µM final concentration). […]
# [5] = hepatocytes; cited from earlier work
# [6] = test system: zebrafish; conditions: cited from earlier work
# [7] = test system: zebrafish; conditions: female, observed, ref Chen et al. 43, cited from earlier work
# [8] = test system: UGT1A1; design: method as in Wang et al. 64; conditions: single isolated enzyme; ref Wang et al. 64; cited from earlier work
# [9] = cited from earlier work; remark: listed apart in the source
# [10] = test system: zebrafish; conditions: cited from earlier work; remark: listed apart in the source
# [11] = cited from earlier work; remark: listed apart in the source
# [12] = molecular target: Estrogen receptor (ER); design: method as in Kitamura et al. 2005; conditions: ERE-luciferase reporter assay, MCF-7 cells; ref Kitamura et al. 2005; cited from earlier work
# [13] = test system: ER; conditions: known from literature, no reference given; cited from earlier work
# [14] = test system: zebrafish; test: PBTK parameter fitting (Nelder–Mead algorithm) to in vivo zebrafish data; design: species or system zebrafish (Danio rerio); conditions: fitted on egg TBBPA concentrations, 100 nmol/g feed (Nyholm et al.)
# Excerpt: Ovaries and eggs were assumed to receive the same blood flow. The equation for the egg compartment was described as follows using the diffusion-limited equation previously described by Thompson and Beard[51] [drawing 4] 4 where dAegg/dt represents the rate of change of bisphenol over time in the egg compartment, Agon and Aegg represent the amount of compound in the gonads and egg, respectively, Vgon and Vegg are the volumes of the gonads and eggs, respectively, and Pgon and Pegg are the partition coefficients of the gonads to blood and egg to gonads.
# Parameter fitting was done in R using the modFit function in the FME package with the Nelder–Mead algorithm.[53]
# 279For fitting, the model was run using the exposure scenarios of each fitting data set.
# 280parameters were fixed as presented in Tables S10-S14 with exception of the parameter for
# 281which fitting was performed. The outcome evaluated by fitting algorithm was the concentration
# 282over time in the same tissue as the experimental data. Outcomes used for fitting to measured
# 283experimental data were: concentration in brain for brain-blood partition coefficient,
# 284concentration in liver for liver-blood partition coefficient, concentration in eggs for egg-gonad
# 285partition coefficient and whole-body metabolite concentration for Ke bile and KBG of metabolites.
# 286For the liver, brain and egg partitioning, the range was set between 0.01 and 500 and the Nelder-
# 287Mead algorithm was run with initial estimates at 1, 5, 10, 50 and 500 in order to assure a global
# 288minimum was found. The fitted values returning the lowest squared sum of residuals were used
# The GI lumen to GI tract diffusion rate (K u)
# [15] = test system: zebrafish; design: method as in Nyholm et al. 46; conditions: female, observed, ref Nyholm et al. 46, cited from earlier work
# [16] = from measured S9 clearance, transformed as suggested by Nichols et al.
# [17] = measured human values, ref CompTox Dashboard
# [18] = 20 μg/L, female, liver, observed, ref Shi et al. 47
# [19] = 20 μg/L, female, ovaries, observed, ref Shi et al. 47
# [20] = 20 μg/L, female, whole body, observed, ref Shi et al. 47
# [21] = 20 μg/L, male, liver, observed, ref Shi et al. 47
# [22] = 20 μg/L, male, testes, observed, ref Shi et al. 47
# [23] = 20 μg/L, male, whole body, observed, ref Shi et al. 47
# [24] = in vitro incubation with rainbow trout liver S9, assuming 163 mg S9 protein/g liver
# [25] = cells marked g, ref Staples et al. 1998
# [26] = metabolite, Female, whole body, Observed, ref Shi et al. 2016
# [27] = metabolite, Male, whole body, Observed, ref Shi et al. 2016
# [28] = measured values, ref Grumetto et al 2019
# [29] = metabolite, Female, whole body, Observed, ref Lindholst et al. 2003
compound,measurement,setting,value
"O=C(c1ccc(O)cc1O)c1ccc(O)cc1O [BP-2, benzophenone 2]",EC50,[1],620 nM
same,EC50,[2],620 nM
same,Funbound (plasma fraction unbound),"[3]; human, plasma",0.035
same,CL (clearance rate),[4]; 163 mg,5.79 × 10^4 mL/d/g liver
same,"CLin vivo,int (in vivo intrinsic clearance)",[4]; s9,869 L/d/Kg fish
same,CL (human clearance rate),[5],1.41*105 ml/d/g liver
CC(C)(c1ccc(O)cc1)c1ccc(OS(=O)(=O)O)cc1 [BPA sulfate],concentrations relative to those of the glucuronide,"[6]; zebrafish, in vivo",1000 times lower
"CC(C)(c1ccc(O)cc1)c1ccc(O)cc1 [BPA, Bisphenol A]",BCF,"[6]; 97.5 μg/L, gender not specified, whole body, observed, ref Lindholst et al. 39",6.46
same,t1/2,"[6]; zebrafish, in vivo",107 h
same,BCF,"[7]; 1.94 μg/L, liver",201
same,BCF,"[7]; 1.94 μg/L, ovaries",10.3
same,BCF,"[7]; 5.72 μg/L, liver",199
same,BCF,"[7]; 5.72 μg/L, ovaries",21.0
same,BCF,"[7]; 5.72 μg/L, whole body",19.2
same,UGT1A1 activity,[8],5.19 pmol/min/mg protein
same,Funbound (plasma fraction unbound),[3]; plasma,0.035
same,log Kow,[9]; ref Staples et al. 67,3.42 ^f
same,"CLin vivo,int (in vivo intrinsic clearance)",[4]; [16],36.7 L/d/Kg fish
same,CL (human clearance rate),[5],1.46*105 ml/d/g liver
"Oc1ccc(C(c2ccc(O)cc2)(C(F)(F)F)C(F)(F)F)cc1 [BPAF, bisphenol AF]",Funbound (plasma fraction unbound),[3]; [17],0.010
same,AUC,[10]; [18],1.38 µg/g/day
same,BCF,[10]; [18],11.9
same,Cmax,[10]; [18],0.24 µg/g
same,t1/2,[10]; [18],204 h
same,AUC,[10]; [19],1.50 µg/g/day
same,BCF,[10]; [19],10.9
same,Cmax,[10]; [19],0.22 µg/g
same,t1/2,[10]; [19],190 h
same,AUC,[10]; [20],0.8 µg/g/day
same,BCF,[10]; [20],7.04
same,Cmax,[10]; [20],0.14 µg/g
same,t1/2,[10]; [20],120 h
same,AUC,[10]; [21],4.93 µg/g/day
same,BCF,[10]; [21],40.5
same,Cmax,[10]; [21],0.81 µg/g
same,t1/2,[10]; [21],610 h
same,AUC,[10]; [22],3.23 µg/g/day
same,BCF,[10]; [22],27.5
same,Cmax,[10]; [22],0.55 µg/g
same,t1/2,[10]; [22],20.4 h
same,AUC,[10]; [23],1.25 µg/g/day
same,BCF,[10]; [23],9.80
same,Cmax,[10]; [23],0.20 µg/g
same,t1/2,[10]; [23],85.9 h
same,CL,[4]; both series combined,0.78 mL/(h x mg)
same,"CLin vivo,int (in vivo intrinsic clearance)",[4]; [16],45.5 L/d/Kg fish
same,CL (clearance rate),[4]; [24],3.04 × 10^3 mL/d/g liver
same,CL,[4]; series 1 (s1),0.75 mL/(h x mg)
same,k (first-order disappearance rate constant),[4]; series 1 (s1),0.73 h⁻¹
same,CL,[4]; series 2 (s2),0.80 mL/(h x mg)
same,k (first-order disappearance rate constant),[4]; series 2 (s2),0.78 h⁻¹
"O=C(O)[C@H]1O[C@@H](Oc2ccc(C(c3ccc(O)cc3)(C(F)(F)F)C(F)(F)F)cc2)[C@H](O)[C@@H](O)[C@@H]1O [BPAF-GA, BPAF glucuronic acid]",Ratio blood-plasma,[11]; [25],1.00
same,AUC,[10]; [26],6.54 µg/g/day
same,Cmax,[10]; [26],1.09 µg/g
same,AUC,[10]; [27],3.54 µg/g/day
same,Cmax,[10]; [27],0.60 µg/g
"CC(c1ccccc1)(c1ccc(O)cc1)c1ccc(O)cc1 [BPAP, bisphenol AP]",EC50,[1],290 nM
same,EC50,[2],120 nM
same,CL,[4]; both series combined,1.80 mL/(h x mg)
same,"CLin vivo,int (in vivo intrinsic clearance)",[4]; [16],106 L/d/Kg fish
same,CL (clearance rate),[4]; [24],7.06 × 10^3 mL/d/g liver
same,CL,[4]; series 1 (s1),1.79 mL/(h x mg)
same,k (first-order disappearance rate constant),[4]; series 1 (s1),1.73 h⁻¹
same,CL,[4]; series 2 (s2),1.82 mL/(h x mg)
same,k (first-order disappearance rate constant),[4]; series 2 (s2),1.74 h⁻¹
"CCC(C)(c1ccc(O)cc1)c1ccc(O)cc1 [BPB, bisphenol B]",Ratio blood-plasma,[11]; [28],1.04
same,EC50,[1],170 nM
same,EC50,[2],130 nM
same,Funbound (plasma fraction unbound),[3]; [17],0.018
same,EC50,[12],70 nM
same,CL,[4]; both series combined,0.96 mL/(h x mg)
same,"CLin vivo,int (in vivo intrinsic clearance)",[4]; [16],56.4 L/d/Kg fish
same,CL (clearance rate),[4]; [24],3.76 × 10^3 mL/d/g liver
same,CL,[4]; series 1 (s1),0.92 mL/(h x mg)
same,k (first-order disappearance rate constant),[4]; series 1 (s1),0.95 h⁻¹
same,CL,[4]; series 2 (s2),1.00 mL/(h x mg)
same,k (first-order disappearance rate constant),[4]; series 2 (s2),0.99 h⁻¹
"Cc1cc(C(C)(C)c2ccc(O)c(C)c2)ccc1O [BPC, bisphenol C]",CL,[4]; both series combined,1.03 mL/(h x mg)
same,"CLin vivo,int (in vivo intrinsic clearance)",[4]; [16],60.6 L/d/Kg fish
same,CL (clearance rate),[4]; [24],4.04 × 10^3 mL/d/g liver
same,CL,[4]; series 1 (s1),1.01 mL/(h x mg)
same,k (first-order disappearance rate constant),[4]; series 1 (s1),1.03 h⁻¹
same,CL,[4]; series 2 (s2),1.05 mL/(h x mg)
same,k (first-order disappearance rate constant),[4]; series 2 (s2),1.05 h⁻¹
"Oc1ccc(Cc2ccc(O)cc2)cc1 [BPF, bisphenol F]",Ratio blood-plasma,[11]; [28],1.41
same,EC50,[1],780 nM
same,EC50,[2],950 nM
same,log Kow,"[9]; measured value, ref CompTox Dashboard",2.91 ^h
same,EC50,[12],1000 nM
same,CL,[4]; both series combined,0.31 mL/(h x mg)
same,"CLin vivo,int (in vivo intrinsic clearance)",[4]; [16],18.0 L/d/Kg fish
same,CL (clearance rate),[4]; [24],1.20 × 10^3 mL/d/g liver
same,CL,[4]; series 1 (s1),0.31 mL/(h x mg)
same,k (first-order disappearance rate constant),[4]; series 1 (s1),0.31 h⁻¹
same,CL,[4]; series 2 (s2),0.30 mL/(h x mg)
same,k (first-order disappearance rate constant),[4]; series 2 (s2),0.31 h⁻¹
"O=S(=O)(c1ccc(O)cc1)c1ccc(O)cc1 [BPS, bisphenol S]",EC50,[1],1420 nM
same,EC50,[2],800 nM
same,EC50,[12],1100 nM
same,k (first-order disappearance rate constant),[4]; series 1 (s1),0.41 h⁻¹
same,k (first-order disappearance rate constant),[4]; series 2 (s2),0.48 h⁻¹
CC(C)(C)c1cc(Cc2cc(C(C)(C)C)c(O)c(C(C)(C)C)c2)cc(C(C)(C)C)c1O [Bimox M],ER activity,[13],inactive on the ER
same,CL (in vitro rainbow trout clearance rate),[4],0 ml/d/g liver
same,metabolic degradation,[4],no metabolic degradation
same,CL (clearance rate),[4]; 163 mg,0 mL/d/g liver
same,"CLin vivo,int (in vivo intrinsic clearance)",[4]; s9,0 L/d/Kg fish
"CC(C)(c1cc(Br)c(O)c(Br)c1)c1cc(Br)c(O)c(Br)c1 [TBBPA, tetrabromobisphenol A]",Ku (diffusion coefficient from GI lumen into GI tract),[14],8.40
same,Pegg (egg-gonad partition coefficient),[14]; used for all bisphenols,1.58
same,AUC,"[15]; 10 nmol/g feed, egg",0.017 µg/g/day
same,Cmax,"[15]; 10 nmol/g feed, egg",0.001 µg/g
same,AUC,"[15]; 10 nmol/g feed, whole body",0.291 µg/g/day
same,Cmax,"[15]; 10 nmol/g feed, whole body",0.015 µg/g
same,AUC,"[15]; 100 nmol/g feed, egg",0.118 µg/g/day
same,Cmax,"[15]; 100 nmol/g feed, egg",0.004 µg/g
same,Funbound (plasma fraction unbound),[3]; [17],0.001
same,log Kow,"[9]; measured value, ref Kuramochi et al. 68",6.53 ^i
same,parent compound metabolized when levels stopped decreasing,"[4]; after 15 min of incubation, both repetitions",~70%
same,CL,[4]; both series combined,4.18 mL/(h x mg)
same,"CLin vivo,int (in vivo intrinsic clearance)",[4]; [16],245 L/d/Kg fish
same,CL (clearance rate),[4]; [24],1.63 × 10^4 mL/d/g liver
same,CL,[4]; series 1 (s1),3.90 mL/(h x mg)
same,k (first-order disappearance rate constant),[4]; series 1 (s1),3.95 h⁻¹
same,CL,[4]; series 2 (s2),4.45 mL/(h x mg)
same,k (first-order disappearance rate constant),[4]; series 2 (s2),4.38 h⁻¹
BPA glucuronic acid [BPA-GA],Ratio blood-plasma,[11]; [25],1.00
same,AUC,[6]; [29],109 µg/g/day
same,Cmax,[6]; [29],16.2 µg/g
same,t1/2,[6]; [29],196 h
